Assay results taken from US20160310454A1, “LIVER X RECEPTOR AGONISTS IN THE TREATMENT OF EMPHYSEMA” (priority 2013, published 2016).
“Also recorded” adds a separate entry of the source.

Columns and labels:
[1] = system: AKR/J mice exposed to cigarette smoke for 5 months; assay: Chronic 5 months cigarette smoke exposure model, LXR agonist in diet; format: in vivo, mouse; conditions: for cigarette smoke induced protein levels of TNFα in the BAL / level of ABCA1 in BAL and lung tissue / total inflammatory cell counts in BAL: diet 0.015% w/w (30 mg/kg)
Protocol: Mice were chronically exposed to smoke in a specially designed chamber (Teague Enterprise, CA). 8 weeks old mice were smoke-exposed for 5 hours a day, 5 days a week for 10 days and 5 months. The total particulate matter (TPM) within the smoking chamber was regulated so that the mice receive a TPM of 100 mg/m^3. TPM was determined by a gravimetric analysis of filter samples taken during the exposure period. Mice (C57BL/6, AKR/J strain) were smoke exposed for 10 days and 5 months and compared to room air exposed controls.
Eight week-old AKR/J mice were utilized in the study and exposed to three different conditions: room air (n=8), cigarette smoke (n=8), cigarette smoke with additional treatment with LXR agonist (n=8). The LXR agonist was delivered in the diet and the concentration calculated based on the average mouse weight (30 g) and food consumption (6 g/day). Experimental food was prepared with a 0.015% LXR agonist (T0901317-Cayman Chemicals) in food (w/w) concentration corresponding to 30 mg/kg body weight. Both the control group and the custom drug diet were prepared by Research diets, Inc., New Brunswick, N.J. (Control diet (C11000)—Purina Rodent Chow 5001, Custom Diet (C13861)—Purina Rodent Chow 5001 with 0.015% LXR agonist (T0901317-Cayman Chemicals).
To determine the pulmonary compliance of the lung, a closed chest model was utilized (Foronjy et al., 2005). Respiratory mechanics were measured using a flexiVent (SCIREQ) system (Foronjy et al., 2005). Pentobarbital was used for sedation and succinylcholine for paralysis. The mice then underwent neck dissection and tracheostomy followed by a full assessment of pulmonary mechanics in triplicate utilizing the flexiVent system (Foronjy et al., 2005). After the airway measurements were performed the animals were sacrificed by CO2 inhalation and further utilized for tissue, BAL and lung analysis.
The BAL fluid was collected by perfusing the lungs with 2 ml of phosphate buffered saline (PBS). The samples were then centrifuged to pellet down the cells and re-suspended in 300 μl of PBS. To obtain the total cell count, cells were counted using a hematocytometer for which, 10 μl of the sample was utilized. To obtain the differential cell count, the slides were prepared using a cytopsin. 150 μl of sample was taken to prepare slides. These slides were stained using Hematoxylin and Eosin (H&E) and a number of regular and foamy like macrophages and lymphocytes counted under the microscope. A foamy like phenotype (Hirama et al., 2007) was identified by examining the sequential increase in macrophage size. Lipid staining was not performed.
Histological evaluation of the inflammation was performed on the left lungs which were fixed using 10% formalin. Fixed tissue was stained with H&E and Trichrome and mean linear intercept (MLI) determined as described previously (Foronjy et al., 2008; Foronjy et al., 2005; Foronjy et al., 2001; Foronjy et al., 2010; Foronjy et al., 2008a; Foronjy et al., 2006; Foronjy et al., 2003; Geraghty et al., 2013).
Total RNA was extracted from specimens of lung tissue 0.3 cm^3 in size with the use of the RNeasy kit (Qiagen, Germantown, Md.) (Goldklang et al., 2012). The RNA was then further processed to obtain cDNA, which was used for Real Time (RT) PCR analysis. TaqMan gene expression assays (Applied Biosystems, Carlsbad, Calif.) were performed to assess gene-transcript levels with the use of an ABI Prism 7900HT Sequence Detection System (Applera, Foster City, Calif.) (Goldklang et al., 2012). The following primers were used to check the respective gene expression: ABCA1 (Hs01059118_m1), ABCG1 (Hs00245154_m1), MMP-9 (Mm00442991_m1), IL-1β (Mm00434227_g1), TNF-α (Mm00443260_g1) and GAPDH (4352932E) from TaqMan Gene Expression Assays, Applied Biosystems, CA. β-actin was used as a control since it is a housekeeping gene.

[2] = system: human peripheral blood monocytes differentiated to macrophages, 5% CSE; assay: Human monocyte-derived macrophages treated with 5% CSE with or without LXR agonist; format: cell-based; conditions: LXR agonist 3 μM
Description: FIG. 21. Downregulation of ABC transporters in Chronic Obstructive Pulmonary Disease (COPD) as potential therapeutic target with LXR agonist. (A.) (Left) mRNA expression analysis of ABCA1 G1 in lungs of patients with moderate (after lung volume reduction) and severe COPD (after lung transplantation) and (Right) mRNA expression analysis of ABCA1/G1 in lungs of patients with moderate and severe COPD (n=7). (B.) mRNA analysis of ABCA1, ABCG1, MMP9, (C.) MMP-2 and 9 activity assayed by gelatin zymography in human peripheral blood monocytes differentiated to macrophages in vitro by 3 days treatment with M-CSF (10Ong/m1). After differentiation process human macrophages were treated with 5% CSE with or without LXR agonist (T0901317-Cayman) treatment in 3 μM concentration. β-Actin was used as a housekeeping gene control for RT-PCR. Values are presented as statistically significant when *p<0.05, **p<0.01, ***p<0.001 when compared to controls and #p<0.05 compared Co LXR treated human macrophages.
To prepare cigarette (CSE), the smoke from one cigarette (1.1 mg of nicotine, 15 mg of tar) was passed through 25 mls of phosphate buffered saline (PBS) (Mercer et al., 2004). The pH of the extracted solution was adjusted to 7.4 and then filtered (Mercer et al., 2004). CSE was added to the media at concentrations up to 5% (vol/vol) (Mercer et al., 2004).

[3] = 5 months smoke, mass spectrometry
[4] = 5 months smoke, listed as LXR agonist
[5] = diet 0.015% w/w, 5 months smoke

O=S(=O)(c1ccccc1)N(CC(F)(F)F)c1ccc(C(O)(C(F)(F)F)C(F)(F)F)cc1 [T0901317, N-(2,2,2-trifluoroethyl)-N-[4-[2,2,2-trifluoro-1-hydroxy-1-(trifluoromethyl)ethyl]phenyl]-benzenesulfonamide]
collagen airway and vessels deposition ([1]; 5 months smoke, Masson Trichrome staining): decrease
cigarette smoke induced increase in C14 and C16 ceramides in BAL [1, 3]: reduced
total level of ceramides in the BAL [1, 3]: reduced
smoke induced increase in IFNγ and MCP-1 in the lung ([1]; diet 0.015% w/w): inhibited
cigarette smoke induced protein levels of TNFα in the BAL ([1]; 5 months smoke): decreased
level of ABCA1 in BAL and lung tissue ([1]; 5 months smoke): induced
total inflammatory cell counts in BAL ([1]; 5 months smoke): decrease
cigarette smoke induced protein levels of TNFα in the BAL [1, 4]: abrogated
level of ABCA1 in BAL and lung tissue [1, 4]: successfully increased; also recorded: restored
total inflammatory cell counts in BAL [1, 4]: significantly decreased
lung structure / emphysema development by mean linear intercept [1, 5]: preserved the lung structure and blocked emphysema development
mRNA expression of MMP-9 and TNFα in the lungs [1, 5]: No significant changes
mRNA levels of MMP-9 in the BAL cells [1, 5]: not significantly altered
alveolar macrophage population exhibiting a foam cell-like phenotype ([1]; diet 0.015% w/w, 5 months smoke, differential BAL cell counts): significantly reduced
lung elastance ([1]; diet 0.015% w/w, 5 months smoke, flexiVent): increase
lung compliance ([1]; diet 0.015% w/w, 5 months smoke, flexiVent, vs untreated smoke exposed mice): decrease
smoke induced MMP-9 activity in the BAL ([1]; diet 0.015% w/w, gelatin zymography): attenuated
ABC transporter levels (ABCA1, ABCG1 mRNA) [2]: restored
CSE increased MMP-9 expression and activity [2]: inhibited
